Test [1] addresses T1, HCV NS5B (Hepatitis C virus genotype 1b, UniProt Q9WMX2).
T1 construct: The protein was expressed with an 18 amino acid C-terminal truncation to enhance the solubility; made in house; host or cells: E. coli BL21(DE3)
Put plainly: HCV NS5B RdRp enzyme assay (preincubation protocol). The class given is biochemical. To be noted: HCV NS5B RdRp genotype 1b. Here is the method:
HCV NS5B RdRp cloning, expression, and purification. The cDNA encoding the NS5B protein of HCV, genotype 1b, was cloned into the pET21a expression vector. The protein was expressed with an 18 amino acid C-terminal truncation to enhance the solubility. The E. coli competent cell line BL21(DE3) was used for expression of the protein. Cultures were grown at 37° C. for ˜4 hours until the cultures reached an optical density of 2.0 at 600 nm. The cultures were cooled to 20° C. and induced with 1 mM IPTG. Fresh ampicillin was added to a final concentration of 50 μg/ml and the cells were grown overnight at 20° C.
Cell pellets (3 L) were lysed for purification to yield 15-24 mgs of purified NS5B. The lysis buffer consisted of 20 mM Tris-HCl, pH 7.4, 500 mM NaCl, 0.5% triton X-100, 1 mM DTT, 1 mM EDTA, 20% glycerol, 0.5 mg/ml lysozyme, 10 mM MgCl2, 15 ug/ml deoxyribonuclease I, and Complete TM protease inhibitor tablets (Roche). After addition of the lysis buffer, frozen cell pellets were resuspended using a tissue homogenizer. To reduce the viscosity of the sample, aliquots of the lysate were sonicated on ice using a microtip attached to a Branson sonicator. The sonicated lysate was centrifuged at 100,000×g for 1 hr at 4° C. and filtered through a 0.2 μm filter unit (Corning).
The protein was purified using three sequential chromatography steps: Heparin sepharose CL-6B, polyU sepharose 4B, and Hitrap SP sepharose (Pharmacia). The chromatography buffers were identical to the lysis buffer but contained no lysozyme, deoxyribonuclease I, MgCl2 or protease inhibitor and the NaCl concentration of the buffer was adjusted according to the requirements for charging the protein onto the column. Each column was eluted with a NaCl gradient which varied in length from 5-50 column volumes depending on the column type. After the final chromatography step, the resulting purity of the enzyme is >90% based on SDS-PAGE analysis. The enzyme was aliquoted and stored at −80° C.
Standard HCV NS5B RdRp enzyme assay. HCV RdRp genotype 1b assays were run in a final volume of 60 μl in 96 well plates (Costar 3912 H. The assay buffer is composed of 20 mM Hepes, pH 7.5, 2.5 mM KCl, 2.5 mM MgCl2, 1 mM DTT, 1.6 U RNAse inhibitor (Promega N2515), 0.1 mg/ml BSA (Promega R3961), and 2% glycerol. All compounds were serially diluted (3-fold) in DMSO and diluted further in water such that the final concentration of DMSO in the assay was 2%. HCV RdRp genotype 1b enzyme was used at a final concentration of 28 nM. A polyA template was used at 6 nM, and a biotinylated oligo-dT12 primer was used at 180 nM final concentration. Template was obtained commercially (Amersham 27-4110). Biotinylated primer was prepared by Sigma Genosys. 3H-UTP was used at 0.6 μCi (0.29 μM total UTP). Reactions were initiated by the addition of enzyme, incubated at 30° C. for 60 min, and stopped by adding 25 μl of 50 mM EDTA containing SPA beads (4 μg/μl, Amersham RPNQ 0007 H. Plates were read on a Packard Top Count NXT after >1 hr incubation at room temperature.
Modified HCV NS5B RdRp enzyme assay. A modified enzyme assay was performed essentially as described for the standard enzyme assay except for the following: The biotinylated oligo dT12 primer was precaptured on streptavidin-coated SPA beads by mixing primer and beads in assay buffer and incubating at room temperature for one hour. Unbound primer was removed after centrifugation. The primer-bound beads were resuspended in 20 mM Hepes buffer, pH 7.5 and used in the assay at final concentrations of 20 nM primer and 0.67 μg/μl beads. Order of addition in the assay: enzyme (14 nM) was added to diluted compound followed by the addition of a mixture of template (0.2 nM), 3H-UTP (0.6 μCi, 0.29 μM), and primer-bound beads, to initiate the reaction; concentrations given are final. Reactions were allowed to proceed for 4 hours at 30° C.
IC50 values for compounds were determined using seven different [I]. […]

The test system of test [2] is HCV replicon cells. Put plainly: HCV replicon FRET assay. The class given is cell-based. Particulars: Hepatitis C virus. From the text: FRET Assay Preparation. To perform the HCV FRET screening assay, 96-well cell culture plates were used. The FRET peptide (Anaspec, Inc.) (Taliani et al., Anal Biochem. 1996, 240, 60-67) contains a fluorescence donor, EDANS, near one end of the peptide and an acceptor, DABCYL, near the other end. The fluorescence of the peptide is quenched by […] resonance energy transfer (RET) between the donor and the acceptor, but as the NS3 protease cleaves the peptide the products are released from RET quenching and the fluorescence of the donor becomes apparent. The assay reagent was made as follows: 5× cell Luciferase cell culture lysis reagent from Promega (#E153A) diluted to 1× with dH2O, NaCl added to 150 mM final, the FRET peptide diluted to 20 μM final from a 2 mM stock.
To prepare plates, HCV replicon cells, with or without a Renilla luciferase reporter gene, were trypsinized and placed into each well of a 96-well plate with titrated test compounds added in columns 3 through 12; columns 1 and 2 contained a control compound (HCV protease inhibitor), and the bottom row contained cells without compound. The plates were then placed in a CO2 incubator at 37° C.
Assays. Subsequent to addition of the test compounds described above (FRET Assay Preparation), at various times the plate was removed and Alamar blue solution (Trek Diagnostics, #00-100) was added per well as a measure of cellular toxicity. After reading in a Cytoflour 4000 instrument (PE Biosystems), plates were rinsed with PBS and then used for FRET assay by the addition of 30 ul of the FRET peptide assay reagent described above (FRET Assay Preparation) per well. The plate was then placed into the Cytoflour 4000 instrument which had been set to 340 excite/490 emission, automatic mode for 20 cycles and the plate read in a kinetic mode. Typically, the signal to noise using an endpoint analysis after the reads was at least three-fold. Alternatively, after Alamar blue reading, plates were rinsed with PBS, 50 ul of DMEM (high glucose) without phenol red was added and plates were then used for luciferase assay using the Promega Dual-Glo Luciferase Assay System.
Compound analysis was determined by quantification of the relative HCV replicon inhibition and the relative cytotoxicity values. To calculate cytoxicity values, the average Alamar Blue fluorescence signals from the control wells were set as 100% non-toxic. The individual signals in each of the compound test wells were then divided by the average control signal and multiplied by 100% to determine […]. To calculate the HCV replicon inhibition values, an average background value was obtained from the two wells containing the highest amount of HCV protease inhibitor at the end of the assay period. These numbers were similar to those obtained from naïve Huh-7 cells.
The background numbers were then subtracted from the average signal obtained from the control wells and this number was used as 100% activity. The individual signals in each of the compound test wells were then divided by the averaged control values after background subtraction and multiplied by 100% to determine percent activity. EC50 values for a protease inhibitor titration were calculated as the concentration which caused a 50% reduction in FRET or luciferase activity. The two numbers generated for the compound plate, percent cytoxicity and percent activity were used to determine compounds of interest for further analysis.
On the technique in general: Replicon systems follow genome replication, usually without infectious particles.

pEC50, pIC50: −log10 of the molar value.

T1 sequence (Q9WMX2 2420-2992): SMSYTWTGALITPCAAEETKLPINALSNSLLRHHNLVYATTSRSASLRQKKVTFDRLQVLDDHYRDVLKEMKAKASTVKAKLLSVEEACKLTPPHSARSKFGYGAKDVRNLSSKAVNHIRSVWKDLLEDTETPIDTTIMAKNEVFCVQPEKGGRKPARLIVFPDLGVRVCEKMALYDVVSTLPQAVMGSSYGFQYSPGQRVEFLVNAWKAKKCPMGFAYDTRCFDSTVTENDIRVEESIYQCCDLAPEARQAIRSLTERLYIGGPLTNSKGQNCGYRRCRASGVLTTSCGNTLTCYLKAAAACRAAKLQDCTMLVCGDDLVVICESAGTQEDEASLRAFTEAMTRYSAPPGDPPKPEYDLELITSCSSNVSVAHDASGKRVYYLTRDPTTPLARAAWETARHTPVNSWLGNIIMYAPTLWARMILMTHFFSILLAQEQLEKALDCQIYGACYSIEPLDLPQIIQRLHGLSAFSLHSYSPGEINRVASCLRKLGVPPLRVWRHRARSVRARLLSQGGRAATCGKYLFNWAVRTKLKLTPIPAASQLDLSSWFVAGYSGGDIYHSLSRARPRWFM

Regarding `CCn1nnc(C2=Cc3ccccc3-c3c(C4CCCCC4)c4ccc(C(=O)NS(=O)(=O)N(C)C)cc4n3C2)n1` [Example 4], the pIC50 (usually the negative decadic logarithm of the IC50, by convention in mol/L) in test [1] was 6.30 to 9.00. Moreover, the pEC50 (in general, the negative decadic logarithm of the EC50, by convention in mol/L) in test [2] was below 6.30.

`O=C(O)c1ccc2c(C3CCCCC3)c3n(c2c1)CC(c1nnn(CCO)n1)=Cc1ccccc1-3` [Example 5, 13-cyclohexyl-6-[2-(2-hydroxyethyl)-2H-tetrazol-5-yl]-7H-indolo[2,1-a][2]benzazepine-10-carboxylic acid] showed a pIC50 in test [1] below 6.30. The compound also showed a pEC50 in test [2] below 6.30.

For the compound `O=C(O)c1ccc2c(C3CCCCC3)c3n(c2c1)CC(c1nnn(CC2CC2)n1)=Cc1ccccc1-3` [Example 6, 13-cyclohexyl-6-[2-(cyclopropylmethyl)-2H-tetrazol-5-yl]-7H-indolo[2,1-a][2]benzazepine-10-carboxylic acid], the negative logarithm of the IC50 (pIC50) in test [1] was below 6.30. The same compound had a pEC50 in test [2] below 6.30.

As to `O=C(O)c1ccc2c(C3CCCCC3)c3n(c2c1)C=C(c1nnn(CC2CC2)n1)Cc1ccccc1-3` [Example 7, 13-cyclohexyl-6-[2-(cyclopropylmethyl)-2H-tetrazol-5-yl]-5H-indolo[2,1-a][2]benzazepine-10-carboxylic acid], the pIC50 in test [1] is below 6.30. In test [2], this compound had a pEC50 below 6.30.

`O=C(O)c1ccc2c(C3CCCCC3)c3n(c2c1)CC(c1nnn(CC2CCCO2)n1)=Cc1ccccc1-3` (stereo not shown) [Example 8, 13-cyclohexyl-6-[2-[(tetrahydro-2-furanyl)methyl]-2H-tetrazol-5-yl]-5H-indolo[2,1-a][2]benzazepine-10-carboxylic acid] had a pIC50 in test [1] of 6.30 to 9.00. In test [2], this compound showed a pEC50 below 6.30.

On to `O=C(O)c1ccc2c(C3CCCCC3)c3n(c2c1)CC(c1nnnn1CC1CCCO1)=Cc1ccccc1-3` (stereo not shown) [Example 10, 13-cyclohexyl-6-[1-[(tetrahydro-2-furanyl)methyl]-1H-tetrazol-5-yl]-7H-indolo[2,1-a][2]benzazepine-10-carboxylic acid], for which the pIC50 in test [1] was 6.30 to 9.00. Moreover, the negative logarithm of the EC50 (pEC50) in test [2] is below 6.30.

In test [1], `O=C(O)c1ccc2c(C3CCCCC3)c3n(c2c1)CC(c1nnn(CC2CCOCC2)n1)=Cc1ccccc1-3` [Example 11, 13-cyclohexyl-6-[2-[(tetrahydro-2H-pyran-4-yl)methyl]-2H-tetrazol-5-yl]-7H-indolo[2,1a][2]benzazepine-10-carboxylic acid] gave a negative logarithm of the IC50 (pIC50) of 6.30 to 9.00. Further, the pEC50 in test [2] is below 6.30.

`O=C(O)c1ccc2c(C3CCCCC3)c3n(c2c1)C=C(c1nnn(CC2CCOCC2)n1)Cc1ccccc1-3` [Example 12, 13-cyclohexyl-6-[2-[(tetrahydro-2H-pyran-4-yl)methyl]-2H-tetrazol-5-yl]-5H-indolo[2,1-a][2]benzazepine-10-carboxylic acid] gave a negative-log IC50 (pIC50) in test [1] below 6.30. In addition, in test [2], the pEC50 is below 6.30.

For `O=C(O)c1ccc2c(C3CCCCC3)c3n(c2c1)CC(c1nnnn1CC1CCOCC1)=Cc1ccccc1-3` [Example 13, 13-cyclohexyl-6-[1-[(tetrahydro-2H-pyran-4-yl)methyl]-1H-tetrazol-5-yl]-7H-indolo[2,1-a][2]benzazepine-10-carboxylic acid], the pIC50 in test [1] was 6.30 to 9.00. In test [2], this compound showed a pEC50 below 6.30.

The compound `O=C(O)c1ccc2c(C3CCCCC3)c3n(c2c1)C=C(c1nnnn1CC1CCOCC1)Cc1ccccc1-3` [Example 14, 13-cyclohexyl6-[1-[(tetrahydro-2H-pyran-4-yl)methyl]-1H-tetrazol-5-yl]-5H-indolo[2,1-a][2]benzazepine-10-carboxylic acid] gave a negative logarithm of the IC50 (pIC50) in test [1] below 6.30. The same compound gave a pEC50 in test [2] below 6.30.

Regarding `CN(C)S(=O)(=O)NC(=O)c1ccc2c(C3CCCCC3)c3n(c2c1)CC(c1nnn(CC2CCOCC2)n1)=Cc1ccccc1-3` [Example 15, 13-cyclohexyl-N-[(dimethylamino)sulfonyl]-6-[2-[(tetrahydro-2H-pyran-4-yl)methyl]-2H-tetrazol-5-yl]-7H-indolo[2,1-a][2]benzazepine-10-carboxamide], in test [1], the pIC50 is 6.30 to 9.00. The compound further gave a pEC50 in test [2] below 6.30.

The compound `COc1ccc2c(c1)C=C(c1nnn(CC3CCOCC3)n1)Cn1c-2c(C2CCCCC2)c2ccc(C(=O)O)cc21` [Example 16, 13-cyclohexyl-3-methoxy-6-[2-[(tetrahydro-2H-pyran-4-yl)methyl]-2H-tetrazol-5-yl]-7H-indolo[2,1-a][2]benzazepine-10-carboxylic acid] showed a pIC50 in test [1] of 6.30 to 9.00. Further, the negative-log EC50 (pEC50) in test [2] was below 6.30.

`COc1ccc2c(c1)C=C(c1nnn(CC3CCOCC3)n1)Cn1c-2c(C2CCCCC2)c2ccc(C(=O)NS(=O)(=O)N(C)C)cc21` [Example 17, 13-cyclohexyl-N-[(dimethylamino)sulfonyl]-3-methoxy-6-[2-[(tetrahydro-2H-pyran-4-yl)methyl]-2H-tetrazol-5-yl]-7H-indolo[2,1-a][2]benzazepine-10-carboxamide] gave a pIC50 in test [1] of 6.30 to 9.00. The negative logarithm of the EC50 (pEC50) in test [2] is 6.30 to 9.00.

The compound `O=C(O)c1ccc2c(C3CCCCC3)c3n(c2c1)CC(c1n[nH]c(=O)o1)=Cc1ccccc1-3` [Example 19, 13-cyclohexyl-6-(4,5-dihydro-5-oxo-1,3,4-oxadiazol-2-yl)-7H-indolo[2,1-a][2]benzazepine-10-carboxylic acid] showed a pIC50 in test [1] of 6.30 to 9.00. In test [2], this compound had a pEC50 below 6.30.

The values are drawn from US7456165B2, “HCV NS5B inhibitors” (Bristol-Myers Squibb Company, priority 2006, dated 2008).
